Experiment [1] concerns Saccharomyces cerevisiae. Put plainly: DNA damaging activity against YCp50 transformed Saccharomyces cerevisiae in galactose minimal medium after 41 hrs.
In experiment [2] the test system is Saccharomyces cerevisiae. Description: DNA damaging activity against RAD52 transformed Saccharomyces cerevisiae in galactose minimal medium after 41 hrs. Format: functional, organism-based.
Experiment [3] deals with Saccharomyces cerevisiae. Description: DNA damaging activity against RAD52 transformed Saccharomyces cerevisiae in glucose minimal medium after 41 hrs. Format: functional, organism-based.
Experiment [4] relates to Nucleic Acid. Description: Induction of DNA cleavage assessed as relaxation of supercoiled plasmid DNA at > 1 mM in presence of Cu2+ by cell free assay. It is filed as nucleic-acid assay.
The subject of experiment [5] is Nucleic Acid. Put plainly: Induction of DNA cleavage assessed as relaxation of supercoiled plasmid DNA at > 1 mM by cell free assay. It is filed as nucleic-acid assay.

Active and inactive are the calls of the source. The calls are words filed in the database; no cut-off is given here.

Broadly, the IC50 is the concentration needed to halve the response being measured. A high value points to a need for much substance.

In the case of `COc1c(O[C@@H]2O[C@H](CO)[C@@H](O)[C@H](O)[C@H]2O)cc2c(=O)oc3c4c(cc5c(=O)oc1c2c35)OCO4` [NYSSOSIDE], the half-inhibitory concentration (IC50) was determined as 0.341 µM in the experiment with Saccharomyces cerevisiae [1], 14.4 µM in the experiment with Saccharomyces cerevisiae [2] and 1.12 µM with Saccharomyces cerevisiae [3].
The matching figures for `COc1c(O)cc2c(=O)oc3c(OC)c(O[C@@H]4OC[C@@H](O)[C@H](O)[C@H]4O)cc4c(=O)oc1c2c34`: 23.1 µM, > 1000 µM and 3.1 µM.
With `C[C@@H]1O[C@@H](Oc2c(-c3ccc(O)cc3)oc3cc(O)cc(O)c3c2=O)[C@H](O)[C@H](O)[C@H]1O` [AFZELIN], the concentration for half-maximal inhibition (IC50) with Saccharomyces cerevisiae [1] is 9.3 µM; with Saccharomyces cerevisiae [2] it was > 1000 µM; with Saccharomyces cerevisiae [3] it was 7.4 µM. In addition, the outcome with Nucleic Acid [4] and in the experiment with Nucleic Acid [5] was inactive.

These data come from ChEMBL document CHEMBL1150171, “DNA-damaging agents from Crypteronia paniculata” (J Nat Prod, 2002).
